# In US12637414B2, “Arylamides and methods of use thereof” (Genzyme Corporation, priority 2019, dated 2026):
# Target: T1, human Cystic Fibrosis Transmembrane Conductance Regulator (CFTR) harboring the ΔF508 mutation (Homo sapiens, UniProt P13569, DEL508-508)
# T1 construct: expressed in transfected cells; host or cells: H441 carcinoma line (G418 selection)
# Assay: H441 cell Emax and EC50: HRP-tagged ΔF508-CFTR cell surface luminescence assay
# Format: cell-based
# Details: H441 cells expressing ΔF508-CFTR-HRP, 27° C., two nights; for EC50: 15-point dose-response, top 24.5 μM; for Emax: NCI-H441, % of maximum VX809 signal
# From the text: Two cell lines were used, the H441 carcinoma line and the CFHBE41o-(41o-) human bronchial epithelial line. Both cell lines expressed human Cystic Fibrosis Transmembrane Conductance Regulator (CFTR) harboring the ΔF508 mutation and with an in-frame fusion in CFTR extracellular loop 4 of Horse Radish Peroxidase (HRP) under control of the CMV promoter. In the presence of the HRP tag, ΔF508-CFTR transported to the cell surface was detectable upon addition of an HRP substrate (Luminata Forte). Both cell types were cultivated at 37° C. with CO2.
# For both cell types, the medium was changed every other day unless the culture was at low % confluence. Cells were used for the assays at ˜75% confluence.
# To a polypropylene (PP) 384-well plate, 15 μls DMSO was added to all wells in columns 1-22 and 24 (low Control). 15 μls of 260 μM VX809 (Lumacaftor), Selleckchem S1565, was added to column 23 wells (high Control). 15 μls of 10 mM test compound or VX809 (control) were added to wells of row A. Serial dilutions of Row A compound were performed 2×15 μls in rows A through O (15-point).
# A PP, 384-well plate containing the appropriate cell culture medium was prepared for each assay plate with 100 μls per well. For the doxycycline-induced 41o-cells, doxycycline for both the assay plate and the medium dilution plate was added at 0.0005 mg/ml to the medium.
# Both cell lines were plated for the assay at 30 uls per 384-well at 3.4×10^e5 cells per ml (˜10K cells/well). H441 cells were plated on opaque, white, Corning plate 3704. 41o-cells were plated on collagen-coated opaque, white, Corning plate 356665. For 41o-cells, doxycycline was added to the medium.
# Using FX (Beckman) protocol, 10 uls diluted compound or medium was added per well to the Assay Plate as: 2 μls DMSO Dilution plate well is diluted in 100 uls of the Medium Dilution Plate well, mixed, and 10 uls is transferred to the Assay Plate.
# The final assay dilution series is 24.5, 12.3, 6.1, 3.1, 1.5, 0.8, 0.4, 0.2, 0.1, 0.05, 0.02, 0.01, 0.006, 0.003, 0.001 and 0 μM. The 41o-assay plates were incubated at 37° C. w/CO2, the H441 assay plates were incubated at 27° C. w/CO2, each overnight for two nights.
# After being brought to room temperature, the assay plate liquid was removed. 30 μls of Luminata Forte (Millipore ELLUF0100) was added per well and incubated at room temperature for 10 min. The plates were then read on a Topcount, protocol LumiMatti (CPS, luminescence). The data was analyzed for % of maximum, maximum VX809 signal, and EC50 using Pearl and SPEED tools.
# T1 sequence (P13569 with tags, fused parts or gaps DEL508-508): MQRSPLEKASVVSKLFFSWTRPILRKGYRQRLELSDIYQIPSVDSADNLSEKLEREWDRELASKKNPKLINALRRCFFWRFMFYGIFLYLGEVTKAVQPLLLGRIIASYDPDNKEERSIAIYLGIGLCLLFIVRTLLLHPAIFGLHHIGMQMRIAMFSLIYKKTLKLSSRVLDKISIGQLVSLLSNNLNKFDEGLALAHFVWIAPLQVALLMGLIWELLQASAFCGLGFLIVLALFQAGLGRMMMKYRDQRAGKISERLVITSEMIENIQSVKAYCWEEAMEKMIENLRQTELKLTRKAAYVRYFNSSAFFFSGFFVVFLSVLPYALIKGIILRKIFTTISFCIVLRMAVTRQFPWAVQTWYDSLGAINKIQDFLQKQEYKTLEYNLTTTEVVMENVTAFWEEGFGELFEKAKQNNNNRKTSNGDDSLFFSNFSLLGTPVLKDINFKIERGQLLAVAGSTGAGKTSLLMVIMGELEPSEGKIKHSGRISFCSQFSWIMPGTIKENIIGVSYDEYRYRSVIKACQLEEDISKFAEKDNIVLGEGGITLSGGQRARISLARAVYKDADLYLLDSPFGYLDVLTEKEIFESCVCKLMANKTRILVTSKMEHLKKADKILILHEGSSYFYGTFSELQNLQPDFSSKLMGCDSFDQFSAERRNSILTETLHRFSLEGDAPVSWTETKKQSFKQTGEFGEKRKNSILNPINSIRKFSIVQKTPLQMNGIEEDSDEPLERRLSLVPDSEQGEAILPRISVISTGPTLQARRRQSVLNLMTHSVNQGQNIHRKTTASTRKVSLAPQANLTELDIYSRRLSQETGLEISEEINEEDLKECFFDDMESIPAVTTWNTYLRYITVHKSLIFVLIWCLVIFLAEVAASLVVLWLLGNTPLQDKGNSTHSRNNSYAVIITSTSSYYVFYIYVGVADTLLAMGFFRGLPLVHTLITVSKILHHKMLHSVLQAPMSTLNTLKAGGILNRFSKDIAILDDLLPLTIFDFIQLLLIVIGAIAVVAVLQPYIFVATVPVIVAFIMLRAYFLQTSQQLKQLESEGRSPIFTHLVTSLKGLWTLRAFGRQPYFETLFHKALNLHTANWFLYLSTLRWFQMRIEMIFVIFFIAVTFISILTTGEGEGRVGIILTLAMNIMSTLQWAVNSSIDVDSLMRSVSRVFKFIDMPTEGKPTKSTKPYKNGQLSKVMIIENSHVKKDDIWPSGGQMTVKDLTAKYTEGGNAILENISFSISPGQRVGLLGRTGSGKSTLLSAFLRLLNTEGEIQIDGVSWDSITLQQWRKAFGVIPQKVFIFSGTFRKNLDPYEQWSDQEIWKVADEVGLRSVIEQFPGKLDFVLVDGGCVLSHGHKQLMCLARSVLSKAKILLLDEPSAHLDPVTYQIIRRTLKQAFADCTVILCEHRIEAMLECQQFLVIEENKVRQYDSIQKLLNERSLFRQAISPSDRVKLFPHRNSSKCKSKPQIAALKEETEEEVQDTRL
Structure (SMILES),EC50,Emax
O=C(N[C@H](C(=O)O)C12CC3CC(CC(C3)C1)C2)c1ccc2ccccc2c1OC[C@H]1CC[C@@H](C(F)(F)F)CC1 [compound 70],1860 nM,97.4%
"O=C(N[C@H](C(=O)O)C12CC3CC(CC(C3)C1)C2)c1ccc2sccc2c1OCc1nc(C(F)(F)F)cs1 [compound 115, (2S)-2-(1-adamantyl)-2-[[4-[[4-(trifluoromethyl)thiazol-2-yl]methoxy]benzothiophene-5-carbonyl]amino]acetic acid]",2840 nM,106%
Cc1ccc2ccc(C(=O)N[C@H](C(=O)O)C34CC5CC(CC(C5)C3)C4)c(OCc3ccc(C(F)(F)F)cc3)c2c1 [compound 18],2180 nM,370%
O=C(N[C@H](C(=O)O)C12CC3CC(CC(O)(C3)C1)C2)c1ccc2ccccc2c1OCC1CCCCC1 [compound 30],1450 nM,96.8%
CC(C)C#CCOc1c(C(=O)N[C@H](C(=O)O)C23CC4CC(CC(C4)C2)C3)ccc2cc(F)ccc12 [compound 72],11200 nM,92.7%
O=C(N[C@H](C(=O)O)C12CC3CC(CC(O)(C3)C1)C2)c1ccc2cc(F)ccc2c1OCc1ccc(OC(F)(F)F)cc1 [compound 46],,3.8%
O=C(N[C@H](C(=O)O)C12CC3CC(CC(OCCO)(C3)C1)C2)c1ccc2ccccc2c1OCc1ccc(C(F)(F)F)cc1 [compound 20],780 nM,144%
"O=C(O)[C@@H](N1CN(Cc2ccc(C(F)(F)F)cc2)c2ccccc2C1=O)C12CC3CC(CC(C3)C1)C2 [compound 135, (2S)-2-(1-adamantyl)-2-[4-oxo-1-[[4-(trifluoromethyl)phenyl]methyl]-2H-quinazolin-3-yl]acetic acid]",,-5.4%
O=C(N[C@H](C(=O)O)C12CC3CC(CC(O)(C3)C1)C2)c1ccc2ccccc2c1OCC1CCC(F)(F)CC1 [compound 53],7220 nM,74.1%
O=C(N[C@H](C(=O)O)C12CC3CC(CC(C3)C1)C2)c1ccc2cc(F)ccc2c1OCC1CCC(F)(F)CC1 [compound 16],1750 nM,90%
"O=C(N[C@H](C(=O)O)C12CC3CC(CC(C3)C1)C2)c1ccc2sccc2c1OCc1ccc(OC(F)F)cc1 [compound 107, (2S)-2-(1-adamantyl)-2-[[4-[[4-(difluoromethoxy)phenyl]methoxy]benzothiophene-5-carbonyl]amino]acetic acid]",,-7.7%
CC12CC3(C)CC(C)(C1)CC(C(NC(=O)c1ccc4ccccc4c1OCC1CCC(F)(F)CC1)C(=O)O)(C2)C3 (stereo not drawn) [compound 90],1010 nM,165%
O=C(N[C@H](C(=O)O)C12CC3CC(CC(C3)C1)C2)c1ccc2cc(F)ccc2c1OCC1CCCCC1 [compound 45],939 nM,142%
CC(=O)COC12CC3CC(C1)CC([C@H](NC(=O)c1ccc4cc(F)ccc4c1OCc1ccc(C(F)(F)F)cc1)C(=O)O)(C3)C2 [compound 66],1380 nM,84.2%
CC(C)OC(=O)[C@@H](NC(=O)c1ccc2ccccc2c1OCc1ccc(C(F)(F)F)cc1)C12CC3CC(CC(C3)C1)C2 [compound 74],,4%
O=C(N[C@H](C(=O)O)C12CC3CC(CC(C3)C1)C2)c1sc2ccccc2c1OCc1ccc(Cl)c(Cl)c1 [compound 24],726 nM,159%
O=C(N[C@H](C(=O)O)C12CC3CC(CC(C3)C1)C2)c1sc2ccccc2c1OCc1nc2ccccc2s1 [compound 95],939 nM,156%

# More lines, now with the values ahead:
EC50,Emax,Structure (SMILES)
308 nM,194%,O=C(N[C@H](C(=O)O)C12CC3CC(CC(C3)C1)C2)c1ccc2cccnc2c1OCc1ccc(Cl)c(Cl)c1 [compound 31]
278 nM,51.9%,"O=C(N[C@H](C(=O)O)C12CC3CC(CC(C3)C1)C2)c1ccc2ccccc2c1NCc1ccc(SC(F)(F)F)cc1 [compound 123, (2S)-2-(1-adamantyl)-2-[[1-[[4-(trifluoromethylsulfanyl)phenyl]methylamino]naphthalene-2-carbonyl]amino]acetic acid]"
596 nM,184%,"O=C(N[C@H](C(=O)O)C12CC3CC(CC(C3)C1)C2)c1ccc2sccc2c1OCc1nc2ccccc2s1 [compound 113, (2S)-2-(1-adamantyl)-2-[[4-(1,3-benzothiazol-2-ylmethoxy)benzothiophene-5-carbonyl]amino]acetic acid]"
267 nM,128%,COCCOC12CC3CC(C1)CC([C@H](NC(=O)c1ccc4ccccc4c1OCc1ccc(C(F)(F)F)cc1)C(=O)O)(C3)C2 [compound 43]
397 nM,30.2%,"CC(C)Oc1ccc2c(OCc3ccc(C(F)(F)F)cc3)c(C(=O)N[C@H](C(=O)O)C34CC5CC(CC(C5)C3)C4)ccc2c1 [compound 103, (2S)-2-(1-adamantyl)-2-[[6-isopropoxy-1-[[4-(trifluoromethyl)phenyl]methoxy]naphthalene-2-carbonyl]amino]acetic acid]"
406 nM,156%,O=C(N[C@H](C(=O)O)C12CC3CC(CC(C3)C1)C2)c1cc(F)c2ccccc2c1OCc1ccc(C(F)(F)F)cc1 [compound 3]
291 nM,257%,CC12CC3(C)CC(C)(C1)CC([C@H](NC(=O)c1ccc4ccccc4c1OCc1ccc(C(F)(F)F)cc1)C(=O)O)(C2)C3 [compound 59]
244 nM,133%,"O=C(N[C@H](C(=O)O)C12CC3CC(CC(C3)C1)C2)c1ccc2occc2c1OCc1ccc(C(F)(F)F)cc1 [compound 128, (2S)-2-(1-adamantyl)-2-[[4-[[4-(trifluoromethyl)phenyl]methoxy]benzofuran-5-carbonyl]amino]acetic acid]"
206 nM,176%,O=C(N[C@H](C(=O)O)C12CC3CC(CC(C3)C1)C2)c1ccc2c(F)cccc2c1OCc1ccc(C(F)(F)F)cc1 [compound 1]
477 nM,42.2%,"O=C(O)[C@@H](N1CN(Cc2ccc(SC(F)(F)F)cc2)c2c(ccc3ccccc23)C1=O)C12CC3CC(CC(C3)C1)C2 [compound 126, (2S)-2-(1-adamantyl)-2-[4-oxo-1-[[4-(trifluoromethylsulfanyl)phenyl]methyl]-2H-benzo[h]quinazolin-3-yl]acetic acid]"
471 nM,116%,"O=C(N[C@H](C(=O)O)C12CC3CC(CC(C3)C1)C2)c1ccc2occc2c1OCc1ccc(OC(F)(F)F)cc1 [compound 124, (2S)-2-(1-adamantyl)-2-[[4-[[4-(trifluoromethoxy)phenyl]methoxy]benzofuran-5-carbonyl]amino]acetic acid]"
280 nM,141%,"O=C(N[C@H](C(=O)O)C12CC3CC(CC(C3)C1)C2)c1ccn2cccc2c1OCc1ccc(OC(F)(F)F)cc1 [compound 118, (2S)-2-(1-adamantyl)-2-[[8-[[4-(trifluoromethoxy)phenyl]methoxy]indolizine-7-carbonyl]amino]acetic acid; 2,2,2-trifluoroacetic acid]"
375 nM,131%,COC12CC3CC(C1)CC([C@H](NC(=O)c1ccc4ccccc4c1OCc1ccc(C(F)(F)F)cc1)C(=O)O)(C3)C2 [compound 85]
599 nM,271%,CC12CC3(C)CC(C)(C1)CC(C(NC(=O)c1ccc4ccccc4c1OCC1CCCCC1)C(=O)O)(C2)C3 (stereo not drawn) [compound 75]
212 nM,196%,CC12CC3(C)CC(C)(C1)CC(C(NC(=O)c1ccc4ccccc4c1OCc1ccc(C(F)(F)C(F)(F)F)cc1)C(=O)O)(C2)C3 (stereo not drawn) [compound 76]
113 nM,158%,O=C(N[C@H](C(=O)O)C12CC3CC(Cl)(CC(Cl)(C3)C1)C2)c1ccc2ccccc2c1OCc1ccc(SC(F)(F)F)cc1 [compound 81]
90 nM,34.9%,"C[C@H]1N(Cc2ccc(C(F)(F)F)cc2)c2c(ccc3ccccc23)C(=O)N1[C@H](C(=O)O)C12CC3CC(CC(C3)C1)C2 [compound 129, (2S)-2-(1-adamantyl)-2-[(2S)-2-methyl-4-oxo-1-[[4-(trifluoromethyl)phenyl]methyl]-2H-benzo[h]quinazolin-3-yl]acetic acid]"
393 nM,154%,O=C(N[C@H](C(=O)O)C12CC3CC(CC(C3)C1)C2)c1ccc2ccccc2c1OCc1ccc(SC(F)(F)F)cc1 [compound 2]
